The source of these data is patent US4666932A, “Formamidine derivatives and pharmaceutical use” (Istituto de Angeli S.p.A., priority 1982, dated 1987).

Broadly, the EC50 is the concentration at which the effect is half-maximal. A low value points to a more potent agent. For orientation: ED50 means the midpoint of the dose-response relation.

Test [1] deals with T1, histamine H2 -receptors (Cavia porcellus, UniProt P47747).
T1 construct: isolated guinea pig atria suspended in an organ bath (50 ml); from tissue; host or cells: isolated guinea pig atria
The test is described as follows: In vitro inhibition of histamine induced tachycardia (positive chronotropic effect), isolated guinea pig atria. The class given is cell-based. The settings on record: 32° C., pH 7.4, 30 minutes contact before histamine 10^-6 g.ml^-1. The protocol: The myocardial preparation, loaded with 1 g isometric tension, was allowed to stabilize 60 minutes, and myocardial contractions were recorded through an isometric lever connected to a strain-gauge coupler and the instantaneous rate was monitored with a cardiotachometer, and a heatwriting pen recorder. After two control responses to histamine (10^-6 g.ml^-1) the test compound was added to the bath at the desired final concentration and left for 30 minutes before the atria were again challenged with histamine. The chronotropic response obtained in the presence of the antagonist was then compared to the control response to histamine, and the percent reduction of the histamine H2 -evoked response was calculated. […] 3, Smooth muscle, Ed. Daniel E. E. Paton, M., Plenum Press, New York, (1975); Ash and Schild, Br. J. Pharmacol. Chemother. 27, 427-439, 1966.

Test [2] deals with T2, histamine H2 -receptors (Rattus norvegicus, UniProt P25102).
T2 construct: from tissue; host or cells: stomach of the living, anaesthetised rat (in vivo)
The test is described as follows: In vivo antisecretory activity in histamine-induced gastric secretion (stomach-perfused rat). The conditions noted are these: i.v., histamine 1 mg.kg^-1 hr^-1 intravenous, urethane anesthesia, values expressed taking the compound as a base. An excerpt: The ability of the test compounds to inhibit histamine-induced gastric secretion of acid was investigated after intravenous or intraduodenal administration in stomach-perfused rats, according to Gosh and Schild (Br. J. Pharmacol. Chemother. 13, 54, 1958).
The preparation of the animals under general anesthesia (urethane, lg.kg^-1 i.p.) and constant temperature, was achieved by inserting and tying in place polyethylene tubes (PE 50) in the esophagus and in the pyloric-antral region. After the stomach was washed to remove residual of foods, continuous perfusion of the stomach was started with saline, 0.5 ml.min^-1 (37° C.), primed by a Jobling peristaltic pump. After 30 minutes of perfusion adaptation, the stomach perfusate was collected in 30 minute samples, and titrated for acid content, expressed as μEq of NaOH 1N. As control acid output became constant, intravenous perfusion of histamine (1 mg.kg^-1 hr^-1) was started and maintained throughout the experimental period. After the acid secretion had reached the steadily higher level, increasing doses of the test compound were injected intravenously in order to obtain dose-response functions. The ED50 was then calculated by standard procedure.

The next test concerns gastric acid secretion. The conditions noted are these: prior art statement; cited from earlier work.

T2 sequence (P25102 whole entry): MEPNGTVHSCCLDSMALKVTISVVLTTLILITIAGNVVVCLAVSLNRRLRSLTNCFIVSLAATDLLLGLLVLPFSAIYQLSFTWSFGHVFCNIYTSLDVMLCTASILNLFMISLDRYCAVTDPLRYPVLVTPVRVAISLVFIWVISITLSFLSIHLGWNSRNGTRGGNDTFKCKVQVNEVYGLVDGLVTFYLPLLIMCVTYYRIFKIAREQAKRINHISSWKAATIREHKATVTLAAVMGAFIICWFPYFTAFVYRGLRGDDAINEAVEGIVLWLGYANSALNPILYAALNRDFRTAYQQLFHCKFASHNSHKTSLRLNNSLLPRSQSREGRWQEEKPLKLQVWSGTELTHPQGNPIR
T1 sequence (P47747 whole entry): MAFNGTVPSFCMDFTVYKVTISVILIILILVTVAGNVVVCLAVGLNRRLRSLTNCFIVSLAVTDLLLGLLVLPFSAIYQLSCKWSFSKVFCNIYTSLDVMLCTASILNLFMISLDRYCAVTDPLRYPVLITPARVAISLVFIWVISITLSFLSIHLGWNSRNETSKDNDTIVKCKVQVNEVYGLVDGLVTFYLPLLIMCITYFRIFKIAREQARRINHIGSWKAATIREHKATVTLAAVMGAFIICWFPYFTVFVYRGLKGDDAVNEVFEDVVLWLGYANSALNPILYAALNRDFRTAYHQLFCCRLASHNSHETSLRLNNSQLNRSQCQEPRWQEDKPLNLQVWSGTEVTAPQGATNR

Take `CC(O)CNC=Nc1ccc(-c2c[nH]cn2)cc1` (stereo not drawn) [6 (a), N-(2-hydroxypropyl)-N'-[4-(imidazol-4-yl)-phenyl]-formamidine]: a half-maximal effect at histamine H2 -receptors [1] (EC50) was put at 1270 nM. On histamine H2 -receptors [2], this molecule showed an ED50 of 0.043 mg/kg. On histamine H2 -receptors [1], `CSCCNC=Nc1ccc(-c2c[nH]cn2)cc1` [6 (b), N-(2-Methylthio-ethyl)-N'-[4-(imidazol-4-yl)-phenyl]-formamidine] returned an EC50 of 327 nM. The molecule further registered an ED50 on histamine H2 -receptors [2] of 0.022 mg/kg. `N#CCCNC=Nc1ccc(-c2c[nH]cn2)cc1` [6 (j), N-(2-Cyano-ethyl)-N'-[4-(imidazol-4-yl)-phenyl]-formamidine] gave a 50% effective concentration (EC50) at histamine H2 -receptors [1] of 1600 nM. Also, the 50% effect level at histamine H2 -receptors [2] (ED50) was put at a dose of 0.046 mg/kg. As for `CCCCNC=Nc1ccc(-c2c[nH]cn2)cc1C` [6 (k), N-n-Butyl-N'-[4-(imidazol-4-yl)-2-methyl-phenyl]-formamidine], on histamine H2 -receptors [1], the concentration giving a half-maximal response (EC50) was 309 nM. The same molecule registered an ED50 on histamine H2 -receptors [2] of 0.078 mg/kg.

Regarding `C=CCNC=Nc1ccc(-c2c[nH]cn2)cc1C` [6 (l), N-Allyl-N'-[4-(imidazol-4-yl)-2-methyl-phenyl]-formamidine], the EC50 at histamine H2 -receptors [1] was found to be 294 nM. Besides, on histamine H2 -receptors [2], the ED50 stood at 0.09 mg/kg. The like results for `CCCNC=Nc1ccc(-c2c[nH]cn2)cc1OC` [6 (m), N-Propyl-N'-[2-methoxy-4-(imidazol-4-yl)-phenyl]-formamidine] were, in that order, 600 nM and 0.059 mg/kg. Consider `CCOCSCCNC=Nc1ccc(-c2c[nH]cn2)cc1` [8 (b), N-(2-Ethoxymethylthio-ethyl)-N'-[4-(imidazol-4-yl)-phenyl]-formamidine], for which the concentration giving a half-maximal response (EC50) at histamine H2 -receptors [1] was 320 nM. In addition, at histamine H2 -receptors [2], the ED50 worked out at 0.083 mg/kg. On histamine H2 -receptors [1], `CCCNC=Nc1ccc(-c2c[nH]cn2)cc1Br` [8 (c), N-n-Propyl-N'-[2-bromo-4-(imidazol-4-yl)-phenyl]-formamidine] yielded an EC50 of 350 nM. Besides, the ED50 at histamine H2 -receptors [2] came to 0.117 mg/kg. As for `CN/C(=N/CCSCc1nc[nH]c1C)NC#N` [CIMETIDINE, cimetidine], the “effect on gastric acid secretion” value in the test on gastric acid secretion was “capable of antagonizing gastric acid secretion”. Regarding `COCCN=CNc1ccc(-c2c[nH]cn2)cc1` [Example 6, N-(2-Methoxy-ethyl)-N'-[4-(imidazol-4-yl)-phenyl]-formamidine], the EC50 on histamine H2 -receptors [1] amounted to 588 nM. On histamine H2 -receptors [2], it took a dose of 0.05 mg/kg to reach the 50% effect level (ED50). As for `CNC(=S)NCCCCc1cnc[nH]1` [burimamide], the “effect on gastric acid secretion” value with gastric acid secretion is “capable of antagonizing gastric acid secretion”.

In the case of `COc1ccc(CN(CCN(C)C)c2ccccn2)cc1` [mepyramine], the “effect on gastric acid secretion” value in the test on gastric acid secretion is “no effect on gastric acid secretion”.

For the molecule `C/N=C(\S)NCCSCc1[nH]cnc1C` [metiamide], in the test with gastric acid secretion, the “effect on gastric acid secretion” value was “capable of antagonizing gastric acid secretion”. Consider `CNC(=C[N+](=O)[O-])NCCSCc1ccc(CN(C)C)o1` [ranitidine], for which the “effect on gastric acid secretion” value with gastric acid secretion is on record as “capable of antagonizing gastric acid secretion to a greater extent than cimetidine”. For the molecule `CNC(=NCCSCc1csc(N=C(N)N)n1)NC#N` [tiotidine], in the test on gastric acid secretion, the “effect on gastric acid secretion” value is given as “capable of antagonizing gastric acid secretion to a greater extent than cimetidine”.
